The source of these data is patent US7005443B1, “5-Hydroxy indazole derivatives for treating glaucoma” (priority 2000, dated 2006).

Data set [1] has as its target T1, 5HT2 receptor (Rattus norvegicus, UniProt P14842).
T1 construct: A7r5 rat vascular smooth muscle cells; endogenous in cells; host or cells: A7r5 rat vascular smooth muscle cells
Kind of data set: 5HT2 Functional Assay: Phosphoinositide (PI) turnover assay. Format: cell-based. Conditions: for Emax: A7R5, read-out: Efficacy (Emax, %). The method, then:
5HT2 Functional Assay: Phosphoinositide (PI) turnover assay
The relative agonist activity of serotonergic compounds at the 5HT2 receptor can be determined in vitro using the ability of the compounds to stimulate the production of [^3H]inositol phosphates in [^3H]myo-inositol-labeled A7r5 rat vascular smooth muscle cells by their ability to activate the enzyme phospholipase C. These cells are grown in culture plates, maintained in a humidified atmosphere of 5% CO2 and 95% air and fed semi-weekly with Dulbecco's modified Eagle medium (DMEM) containing 4.5 g/l glucose and supplemented with 2 mM glutamine, 10 μg/ml gentamicin, and 10% fetal bovine serum. For the purpose of conducting the phosphoinositide (PI) turnover experiments, the A7r5 cells are cultured in 24-well plates as previously [J. Pharmacol. Expt. Ther., 286, 411 (1998)]. Confluent cells are exposed for 24–30 hrs to 1.5 μCi [^3H]-myo-inositol (18.3 Ci/mmol) in 0.5 ml of serum-free medium. Cells are then rinsed once with DMEM/F-12 containing 10 mM LiCl prior to incubation with the test agent (or solvent as the control) in 1.0 ml of the same medium for 1 hr at 37° C., after which the medium is aspirated and 1 ml of cold 0.1 M formic acid added to stop the reaction. The chromatographic separation of [^3H]-inositol phosphates ([^3H]-IPs) on an AG- 1-X8 column is performed as previously described [J. Pharmacol. Expt. Ther. 286, 411 (1998)] with sequential washes with H2O and 50 mM ammonium formate, followed by elution of the total [^3H]-IPs fraction with 1.2 M ammonium formate containing 0.1 M formic acid. The eluate (4 ml) is collected, mixed with 15 ml scintillation fluid, and the total [3H]-IPs determined by scintillation counting on a beta-counter. Concentration-response data are analyzed by the sigmoidal fit function of the Origin Scientific Graphics software (Microcal Software, Northampton, Mass.) to determine agonist potency (EC50 value) and efficacy (Emax). Serotonin (5HT) is used as a positive control (standard) agonist compound and the efficacy of test compounds is compared to that of 5HT (set at 100%). The concentration of the compound needed to stimulate the production of […] by 50% of the maximum response is termed the EC50 value.

Each structure is given as a SMILES string. Read-outs that look alike come from different tables or passages of the source.

T1 sequence (P14842 whole entry): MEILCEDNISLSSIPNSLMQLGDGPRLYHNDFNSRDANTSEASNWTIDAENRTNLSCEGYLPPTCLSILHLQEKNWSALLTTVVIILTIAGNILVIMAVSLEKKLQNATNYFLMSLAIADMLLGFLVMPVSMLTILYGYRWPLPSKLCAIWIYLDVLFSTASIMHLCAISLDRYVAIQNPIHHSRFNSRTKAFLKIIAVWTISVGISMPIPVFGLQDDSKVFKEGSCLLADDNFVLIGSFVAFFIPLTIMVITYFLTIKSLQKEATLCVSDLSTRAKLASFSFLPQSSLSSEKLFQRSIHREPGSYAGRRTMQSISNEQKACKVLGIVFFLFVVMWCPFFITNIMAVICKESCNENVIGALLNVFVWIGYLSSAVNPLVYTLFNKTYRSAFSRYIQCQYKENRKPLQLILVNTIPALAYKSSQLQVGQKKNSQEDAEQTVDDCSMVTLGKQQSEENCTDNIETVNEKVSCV

A word on the EC50: it is the concentration that produces a half-maximal response. For orientation: Emax means the greatest response seen or fitted, relative to the assay's reference. For orientation: melting point means the temperature of the solid-liquid transition. In turn, `CC(N)Cc1nn(C)c2ccc(O)cc12.O=C(O)/C=C/C(=O)O` (stereo not drawn) [3-(2-Aminopropyl)-1-methyl-1H-indazol-5-ol fumarate] had a melting point of 136 to 139 °C. For the same compound, in data set [1], the EC50 came to 778 nM and the maximal effect (Emax) is 98%.

On to `CC(N)Cc1n[nH]c2ccc(O)cc12.Cl` (stereo not drawn) [3-(2-Aminopropyl)-1H-indazol-5-ol hydrochloride], for which the melting point was 227 to 230 °C. Besides, in data set [1], the Emax amounted to 97%. The EC50 in data set [1] ([3H]inositol phosphate production in A7r5 rat vascular smooth muscle cells, read-out: EC50) was 1210 nM.
